From patent publication US20110294992A1, “METAL RESPONSIVE MRI-AGENTS” (The Regents of the University of California, priority 2010, published 2011)
Where “and” joins values, the source holds several entries; their conditions need not be identical. Equal values may be shown once. Marks after values point to notes of the source that are not given here.

Key:
[1] = Longitudinal relaxivity (r1) from T1 measurements at 60 MHz, absence of copper; type: physicochemical; settings: for r1 (no Cu): no copper, 60 MHz, 20 mM HEPES buffer, pH 7, 37° C., 0.2 mM Gd^3+
Method: (§1) The longitudinal relaxivity values for the CG contrast agents in the absence or presence of copper ions were determined using T1 measurements at 60 MHz. Studies were performed at 37° C. in 20 mM HEPES buffered to pH 7, and solutions of the purified CG sensors for relaxivity experiments contained 0.2 mM Gd^3+ as determined by ICP-OES. Spectroscopic data are collected in Table 1.
Nuclear magnetic relaxation dispersion (NMRD) experiments provide supporting evidence for this proposal (vide infra).

[2] = Longitudinal relaxivity (r1) turn-on response to Cu+ from T1 measurements at 60 MHz; type: physicochemical; settings: pH 7, 37° C.; for r1 (1 equiv Cu): 20 mM HEPES buffer
Method: as §1
Upon addition of up to 1 equiv of copper ions, the relaxivity values of the CG contrast agents increase, establishing the ability of these probes to sense copper using the MR modality (Table 1, FIG. 3). CG2, CG3, CG4, and CG5 respond to Cu^+ with relaxivity increases ranging from 92% to 360%. […] These values represent the largest relaxivity enhancements observed to date for metal-activated MR contrast agents and a ca. 9-fold improvement in copper ion response compared to CG1 (41% increase). The observed differences in turn-on Cu^+ responses for benzyl-substituted CG4 (290% increase) versus methyl-substituted CG5 (92% increase) with the same pyridyl-thioether receptor show the marked effects that small peripheral substitutions can have on relaxivity properties.

[3] = Electrochemical Cu2+/Cu+ reduction potentials of copper-bound CG complexes; type: physicochemical; settings: PBS buffer, pH 7.4
Method: (§2) CG6 is a unique member of the CG family that is equally responsive to both Cu^+ and Cu^2+. Addition of either Cu^+ or Cu^2+ to CG6 triggers a maximum 73% relaxivity turn-on from r1=2.2 mM^−1s^−1 to r1=3.8 mM^−1s^−1. […] On the other hand, copper-bound CG6, which responds to both Cu^+ and Cu^2+, has the least positive Cu^2+/Cu^+ reduction potential at +0.13 V.

[4] = Metal ion selectivity of relaxivity response (competing metal ions alone or with added copper); type: physicochemical; settings: relaxivity at 60 MHz, 20 mM HEPES, pH 7, 37° C.
Method: FIG. 6. Relaxivity responses of CG2 to various metal ions. White bars represent the addition of an excess of the appropriate metal ion (10 mM for Na^+, 2 mM for K^+, Mg^2+, and Ca^2+, and 0.2 mM for Fe^2+, Fe^3+, Cu^2+) to a 0.2 mM solution of CG2. Response to Zn^2+ was measured both at 0.2 mM Zn^2+ (Zn^2+1×) and 2 mM Zn^2+ (Zn^2+10×). Black bars represent the subsequent addition of 0.2 mM Cu^+ to the CG2 solution. Relaxivity measurements were acquired at 37° C. in 20 mM HEPES buffer, pH 7, at a proton Larmor frequency of 60 MHz.
The potential ability of this new family of CG sensors to sense bioavailable copper pools in either or both its predominant oxidation states represents a significant advance over the initial CG1 compound.

[5] = Nuclear magnetic relaxation dispersion (NMRD) profiles, Solomon-Bloembergen-Morgan fit; type: physicochemical; settings: for τs0 (electronic relaxation time at zero field) / r1p 20 MHz 25° C. / a (distance of closest approach of outer-sphere water protons) / Δ^2 (average quadratic transient zero field splitting) / τv (electronic correlation time) / q / τR (rotational correlation time): copper free; for r1p 20 MHz 25° C.: 0.5 mM, 20 mM HEPES pH 7; for a (distance of closest approach of outer-sphere water protons) / Δ^2 (average quadratic transient zero field splitting) / τv (electronic correlation time): best-fit value; for q: fixed in the fitting procedure; for τR (rotational correlation time): not experimentally determined, assumed equal to corresponding q ≠ 0 complex (CG5: average of the other complexes)
Method: FIG. 9. ^1H Nuclear magnetic relaxation dispersion profiles of CG3 and CG3+Cu^+ acquired at 25° C. The solid lines represent the best fit profiles.
As a secondary, independent set of experiments to further probe the mechanisms of copper ion sensing by the CG contrast agents, we also performed nuclear magnetic relaxation dispersion (NMRD) measurements of these sensors in the absence and in the presence of copper ions using a field cycling relaxometer (FIG. 9). The profiles obtained were analyzed following Solomon-Bloembergen-Morgan theory^36-38 for the inner-sphere relaxivity and the Freed model^115 for the outer-sphere relaxivity, fixing the diffusion coefficient (D) at […], the distance between Gd^3+ and the inner sphere water protons (r) at 3.1 Å, and the inner sphere exchange lifetime (τM) at 160 ns, the reported value for the parent complex Gd^3+-DO3A. Profiles were obtained for all compounds in the copper-free state. Profiles in the presence of Cu^n+ were obtained for CG2-4 (Cu^+) and CG6 (Cu^2+).
In fact, the measured outer-sphere relaxivities were so low that, in order to obtain a reasonable fit, the distance of closest approach of outer-sphere water protons (a) was allowed to vary. The distances obtained for the CG complexes (4.2-4.8 Å) were markedly longer than what is observed for typical Gd^3+ contrast agents with greater water access (3.8-4 Å). These values correlate with the copper-free relaxivities of CG2-6; longer a values give lower relaxivities and shorter a values give higher relaxivities. For Cu^+-sensing agents CG2-4, the estimated change in q of 2 as determined by DIS measurements was also observed in the fitted NMRD data. In fact, any attempt to fit the observed NMRD profiles with q=1 led to very poor agreement between experimental and calculated values. The change in q of 1 for CG6 upon addition of Cu^2+ as determined by NMRD is consistent with the lower turn-on response observed with this complex compared to CG2-4. The reduced q modulation for CG6 relative to CG2-4 could indicate that the carboxylic acid moiety used for Cu^2+ binding also interacts with the Gd^3+ center in the Cu^2+-bound state. The fitted rotational correlation times (τR) for copper-bound CG complexes all fall within the range expected for Gd^3+ complexes with molecular weights of 700-800 D. τR values for copper-free CG2-6 were fixed to values close to their copper-bound analogues as fits of NMRD data for q=0 complexes are not sensitive to small changes in τR. The values of Δ^2 (average quadratic transient zero field splitting), τv (electronic correlation time), and τs0 (electronic relaxation time at zero field), which govern the electronic relaxation time, are relatively similar to each other. These NMRD values are closer to those of Gd^3+-DTPA than Gd^3+-DOTA, reflecting the asymmetry of CG2-6.^64

[6] = Apparent Kd for Cu+ by UV-visible absorption with competing ligand thiourea; type: binding; settings: 20 mM HEPES buffer, pH 7, 25° C., 1:1 stoichiometry assumed, read-out: Kd (apparent dissociation constant)
Method: FIG. 5. Normalized absorbance response of 0.2 mM CG2-6 to buffered Cu^+ (CG2-5) or Cu^2+ (CG6) solutions for Kd value determination. Spectra were acquired in 20 mM HEPES, pH 7.

[7] = Longitudinal relaxivity (r1) turn-on response to Cu2+ from T1 measurements at 60 MHz; type: physicochemical; settings: pH 7, 37° C.
Method: as §1, §2

Row | r1 (no Cu) [1] | r1 (1 equiv Cu) [2] | Cu^2+/+ E1/2 [3] | τs0 (electronic relaxation time at zero field) [5] | r1p 20 MHz 25° C. [5] | a (distance of closest approach of outer-sphere water protons) [5] | Δ^2 (average quadratic transient zero field splitting) [5] | τv (electronic correlation time) [5] | q [5] | τR (rotational correlation time) [5] | Kd [6] | r1 (1 equiv Cu) ([7]; 1 equiv Cu^2+, 20 mM HEPES buffer) | change in q ([5]; upon addition of Cu^2+, determined by NMRD) | relaxivity ([1]; 20 mM HEPES buffer at 60 MHz and 37° C.) | SMILES | redox specificity of relaxivity response (Cu^+ vs Cu^2+) [4] | % increase in r1 ([2]; 1 equiv Cu^+ vs no Cu, 20 mM HEPES) | % increase in r1 ([7]; 1 equiv Cu^2+ vs no Cu, 20 mM HEPES)
1 | 1.5 mM⁻¹ s⁻¹ | 6.9 mM^−1s^−1 and 6.9^b mM^−1s^−1 | 0.58 V vs. SHE | 96 ps | 1.6 mM⁻¹ s⁻¹ | 4.7 ± 0.09 Å | 3.2 ± 0.7 10^19 s^−2 | 27 ± 4.4 ps | 0^c | 130^d ps |  |  |  |  | O=C([O-])CN1CCN(CC(=O)[O-])CCN(Cc2cccc(CN3CCSCCSCCSCC3)n2)CCN(CC(=O)[O-])CC1.[Gd+3] [CG3] | give turn-on relaxivity increases with Cu^+ but do not respond to Cu^2+ |  | 
2 | 1.7 mM⁻¹ s⁻¹ | 6.6^b mM^−1s^−1 | 0.40 V vs. SHE | 99 ps | 2.1 mM⁻¹ s⁻¹ | 4.2 ± 0.15 Å | 3.4 ± 1.4 10^19 s^−2 | 25 ± 7.7 ps | 0^c | 130^d ps | 14 pM |  |  |  | CCSCCN(Cc1ccccc1)Cc1cccc(CN2CCN(CC(=O)[O-])CCN(CC(=O)[O-])CCN(CC(=O)[O-])CC2)n1.[Gd+3] [CG4] | give turn-on relaxivity increases with Cu^+ but do not respond to Cu^2+ |  | 
3 | 2.2 mM⁻¹ s⁻¹ | 3.8 mM^−1s^−1 and 3.8^b,c mM^−1s^−1 |  | 61 ps | 2.2 mM⁻¹ s⁻¹ | 4.2 ± 0.13 Å | 8.4 ± 2.0 10^19 s^−2 | 16 ± 2.7 ps | 0^c | 80^d ps |  | 3.8 mM^−1s^−1 and 3.8^b,c mM^−1s^−1 | 1 |  | CCSCCN(CC(=O)[O-])Cc1cccc(CN2CCN(CC(=O)[O-])CCN(CC(=O)[O-])CCN(CC(=O)[O-])CC2)n1.[Gd+3] [CG6] | responds to both Cu^+ and Cu^2+ with the same relaxivity turn-on | 73% | 73%
4 |  |  |  |  |  |  |  |  |  |  |  |  |  | < 0.1 mM⁻¹ s⁻¹ | O=S(=O)([O-])[O-].[Cu+2] [CuSO4] |  |  | 
